Tests used:
CDK8/CycC = target: T1, CDK8/CycC (Homo sapiens, UniProt P49336); experiment: Radiometric protein kinase assay (33PanQinase Activity Assay, ProQinase); assay type: biochemical; details: 1.0 μM ATP, 1.0 μg/50 μL substrate RBER-IRStide, duplicate measurements, read-out: CDK8 Kinase inhibition IC50
T1 construct: purchased ProQinase GmbH, Freiburg, Germany
Experimental: The kinase activity of CDK8/CycC was measured using a radiometric protein kinase assay (33PanQinase® Activity Assay) by ProQinase GmbH, Freiburg, Germany, with the protocols shown at www.proqinase.com/sites/default/files/public/uploads/WildtypeProfiler/radiometric_assay_v05_2012_manual.pdf. IC50 determination (8.3 nM with 1.0 μM ATP and 1.0 μg/50 μL of substrate RBER-IRStide) was performed as duplicate measurements and calculated using Quattro Workflow V3.1.1 (Quattro Research GmbH, Germany). Apparent inhibition constants (Ki) values were calculated from Km (ATP) and IC50 values for the respective kinases.

HCT-116 = experiment: Cell viability assay (MTT, solid tumour cell lines), 72 h growth inhibition; assay type: cell-based; details: Homo sapiens, HCT-116 cells
From the text: (§1) Compounds from Example 1 may be subjected to a standard MTT (3-(4,5-dimethylthiazol-2-yl)-2,5-diphenyltetrazolium bromide) and resazurin assays on solid tumour cell lines and leukemia cell lines, respectively, as previously reported (Wang S et al., J Med Chem 47:1662-1675, 2004 and Diab S e al. CheMedChem 9:962-972, 2014). Compound concentrations required to inhibit 50% of cell growth (GI50) can be calculated using non-linear regression analysis.

MV-4-11 = experiment: Cell viability assay (resazurin, leukemia cell lines), 72 h growth inhibition; assay type: cell-based; details: Homo sapiens, MV4-11, MV-4-11 cells
From the text: as §1

T1 sequence (P49336 whole entry): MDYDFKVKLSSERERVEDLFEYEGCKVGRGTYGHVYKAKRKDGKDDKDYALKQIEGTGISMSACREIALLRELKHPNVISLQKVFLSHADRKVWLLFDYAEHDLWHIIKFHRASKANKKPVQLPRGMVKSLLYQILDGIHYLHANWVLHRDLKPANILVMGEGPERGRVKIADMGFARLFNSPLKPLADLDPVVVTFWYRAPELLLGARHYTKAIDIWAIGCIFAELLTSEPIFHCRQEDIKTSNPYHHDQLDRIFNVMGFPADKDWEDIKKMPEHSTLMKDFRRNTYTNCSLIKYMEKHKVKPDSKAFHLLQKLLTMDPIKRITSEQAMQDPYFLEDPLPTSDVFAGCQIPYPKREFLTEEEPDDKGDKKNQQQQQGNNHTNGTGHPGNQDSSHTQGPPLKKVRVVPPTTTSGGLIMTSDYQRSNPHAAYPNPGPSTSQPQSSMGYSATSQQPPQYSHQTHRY
T1 sequence (P24863 whole entry partner): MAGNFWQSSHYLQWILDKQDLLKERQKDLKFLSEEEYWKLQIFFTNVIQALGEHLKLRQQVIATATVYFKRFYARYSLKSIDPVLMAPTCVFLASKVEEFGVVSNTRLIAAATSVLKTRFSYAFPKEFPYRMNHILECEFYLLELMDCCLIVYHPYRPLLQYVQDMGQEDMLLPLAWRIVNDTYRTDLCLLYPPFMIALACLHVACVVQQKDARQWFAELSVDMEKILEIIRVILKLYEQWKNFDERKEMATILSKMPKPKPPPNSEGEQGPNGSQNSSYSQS

Structure (SMILES)	IC50 (CDK8/CycC) [nM]	GI50 (HCT-116) [nM]	GI50 (MV-4-11) [nM]
CNc1nccc(-c2sc(NC(=O)Nc3ccc(C)cc3)nc2C)n1 [Compound 44, 1-(4-Methyl-5-(2-(methylamino)pyrimidin-4-yl)thiazol-2-yl)-3-(p-tolyl)urea]	7	2370 ± 50	2600 ± 460
CNc1nccc(-c2sc(NC(=O)Nc3cccc([N+](=O)[O-])c3)nc2C)n1 [Compound 14, 1-(4-Methyl-5-(2-(methylamino)pyrimidin-4-yl)thiazol-2-yl)-3-(3-nitrophenyl)urea]	10	5080 ± 820	585 ± 30
CCN1CCN(Cc2ccc(NC(=O)Nc3nc(C)c(-c4ccnc(NC)n4)s3)cc2C(F)(F)F)CC1 [Compound 33, 1-(4-((4-Ethylpiperazin-1-yl)methyl)-3-(trifluoromethyl)phenyl)-3-(4-methyl-5-(2-(methylamino)-pyrimidin-4-yl)thiazol-2-yl)urea]	10	457 ± 30	< 1
CNc1nccc(-c2sc(NC(=O)Nc3cccc(C)c3)nc2C)n1 [Compound 13, 1-(4-Methyl-5-(2-(methylamino)pyrimidin-4-yl)thiazol-2-yl)-3-(m-tolyl)urea]	6	2770 ± 210	3900 ± 1100
CNc1nccc(-c2sc(NC(=O)Nc3ccc(C(F)(F)F)c(C(F)(F)F)c3)nc2C)n1 [Compound 27, 1-(3,4-Bis(trifluoromethyl)phenyl)-3-(4-methyl-5-(2-(methylamino)-pyrimidin-4-yl)thiazol-2-yl)urea]	53	5640 ± 320	4160 ± 800
CNc1nccc(-c2sc(NC(=O)Nc3ccc(Cl)c(C(F)(F)F)c3)nc2C)n1 [Compound 24, 1-(4-Chloro-3-(trifluoromethyl)-phenyl)-3-(4-methyl-5-(2-(methylamino)-pyrimidin-4-yl)thiazol-2-yl)urea]	12	7250 ± 310	3480 ± 9530
CNc1nccc(-c2sc(NC(=O)Nc3ccccc3F)nc2C)n1 [Compound 3, 1-(2-Fluorophenyl)-3-(4-methyl-5-(2-(methylamino)pyrimidin-4-yl)thiazol-2-yl)urea]	42	1590 ± 60	952 ± 200
CC(=O)N1CCN(Cc2ccc(NC(=O)Nc3nc(C)c(-c4ccnc(N(C)C)n4)s3)cc2C(F)(F)F)CC1 [Compound 50, 1-(4-((4-Acetylpiperazin-1-yl)methyl)-3-(trifluoromethyl)-phenyl)-3-(5-(2-(dimethylamino)-pyrimidin-4-yl)-4-methylthiazol-2-yl)urea]	202		612 ± 60
CSc1nccc(-c2sc(NC(=O)Nc3ccc(CN4CCN(C(C)=O)CC4)c(C(F)(F)F)c3)nc2C)n1 [Compound 81, 1-(4-((4-Acetylpiperazin-1-yl)methyl)-3-(trifluoromethyl)phenyl)-3-(4-methyl-5-(2-(methylthio)pyrimidin-4-yl)thiazol-2-yl)urea]	177		715 ± 10
CCNc1nccc(-c2sc(NC(=O)Nc3ccc(CN4CCN(C(C)C)CC4)c(C(F)(F)F)c3)nc2C)n1 [Compound 54, 1-(5-(2-(ethylamino)pyrimidin-4-yl)-4-methylthiazol-2-yl)-3-(4-((4-isopropylpiperazin-1-yl)methyl)-3-(trifluoromethyl)phenyl)urea]	16		< 1
CCOc1cccc(NC(=O)Nc2nc(C)c(-c3ccnc(NC)n3)s2)c1 [Compound 19, 1-(3-Ethoxyphenyl)-3-(4-methyl-5-(2-(methylamino)pyrimidin-4-yl)thiazol-2-yl)urea]	6	854 ± 10	
CNc1nccc(-c2sc(NC(=O)Nc3ccc(CN4CCN(S(C)(=O)=O)CC4)c(C(F)(F)F)c3)nc2C)n1 [Compound 36, 1-(4-Methyl-5-(2-(methylamino)-pyrimidin-4-yl)thiazol-2-yl)-3-(4-((4-(methylsulfonyl)piperazin-1-yl)methyl)-3-(trifluoromethyl)-phenyl)urea]	32		76 ± 10
CNc1nccc(-c2sc(NC(=O)Nc3ccc(CN4CCC(C)CC4)c(C(F)(F)F)c3)nc2C)n1 [Compound 40, 1-(4-Methyl-5-(2-(methylamino)-pyrimidin-4-yl)thiazol-2-yl)-3-(4-((4-methylpiperidin-1-yl)methyl)-3-(trifluoromethyl)phenyl)urea]	34		2510 ± 390
Cc1nc(NC(=O)Nc2ccc(CN3CCN(C)CC3)c(C(F)(F)F)c2)sc1-c1ccnc(C(C)C)n1 [Compound 76, 1-(5-(2-Isopropylpyrimidin-4-yl)-4-methylthiazol-2-yl)-3-(4-((4-methylpiperazin-1-yl)methyl)-3-(trifluoromethyl)phenyl)urea]	74		< 1
CCN1CCN(Cc2ccc(NC(=O)Nc3nc(C)c(-c4nc(NC)ncc4Cl)s3)cc2C(F)(F)F)CC1 [Compound 66, 1-(5-(5-Chloro-2-(methylamino)pyrimidin-4-yl)-4-methylthiazol-2-yl)-3-(4-((4-ethylpiperazin-1-yl)methyl)-3-(trifluoromethyl)phenyl)urea]	21		73 ± 30
CNc1nccc(-c2sc(NC(=O)Nc3ccc(CN4CCN(C(C)=O)CC4)c(C(F)(F)F)c3)nc2C)n1 [Compound 35, 1-(4-((4-Acetylpiperazin-1-yl)methyl)-3-(trifluoromethyl)-phenyl)-3-(4-methyl-5-(2-(methylamino)pyrimidin-4-yl)thiazol-2-yl)urea]	14		85
CNc1nccc(-c2cnc(NC(=O)Nc3ccc(CN4CCN(C(C)=O)CC4)c(C(F)(F)F)c3)s2)n1 [Compound 61, 1-(4-((4-Acetylpiperazin-1-yl)methyl)-3-(trifluoromethyl)phenyl)-3-(5-(2-(methylamino)pyrimidin-4-yl)thiazol-2-yl)urea]	20		176 ± 40
CNc1ncc(C#N)c(-c2sc(NC(=O)Nc3ccc(CN4CCOCC4)c(C(F)(F)F)c3)nc2C)n1 [Compound 75, 1-(5-(5-Cyano-2-(methylamino)pyrimidin-4-yl)-4-methylthiazol-2-yl)-3-(4-(morpholinomethyl)-3-(trifluoromethyl)phenyl)urea]	82		3420 ± 230
CC(=O)N1CCN(Cc2ccc(NC(=O)Nc3nc(C)c(-c4ccnc(C(C)C)n4)s3)cc2C(F)(F)F)CC1 [Compound 77, 1-(4-((4-Acetylpiperazin-1-yl)methyl)-3-(trifluoromethyl)phenyl)-3-(5-(2-isopropylpyrimidin-4-yl)-4-methylthiazol-2-yl)urea]	169		712 ± 20
CNc1nccc(-c2cnc(NC(=O)Nc3ccc(CN4CCN(C(C)C)CC4)c(C(F)(F)F)c3)s2)n1 [Compound 60, 1-(4-((4-Isopropylpiperazin-1-yl)methyl)-3-(trifluoromethyl)phenyl)-3-(5-(2-(methylamino)pyrimidin-4-yl)thiazol-2-yl)urea]	16		7
CCN1CCN(Cc2ccc(NC(=O)Nc3nc(C)c(-c4nc(NC)ncc4C#N)s3)cc2C(F)(F)F)CC1 [Compound 72, 1-(5-(5-Cyano-2-(methylamino)pyrimidin-4-yl)-4-methylthiazol-2-yl)-3-(4-((4-ethylpiperazin-1-yl)methyl)-3-(trifluoromethyl)phenyl)urea]	64		432 ± 10
Cc1nc(NC(=O)Nc2ccc(CN3CCN(C)CC3)c(C(F)(F)F)c2)sc1-c1ccnc(N(C)C)n1 [Compound 49, 1-(5-(2-(Dimethylamino)pyrimidin-4-yl)-4-methylthiazol-2-yl)-3-(4-((4-methylpiperazin-1-yl)methyl)-3-(trifluoromethyl)phenyl)urea]	82		< 1
CCNc1nccc(-c2sc(NC(=O)Nc3ccc(CN4CCN(C)CC4)c(C(F)(F)F)c3)nc2C)n1 [Compound 52, 1-(5-(2-(Ethylamino)pyrimidin-4-yl)-4-methylthiazol-2-yl)-3-(4-((4-methylpiperazin-1-yl)methyl)-3-(trifluoromethyl)phenyl)urea]	15		< 1
CNc1ncc(C#N)c(-c2sc(NC(=O)Nc3ccc(CN4CCN(C)CC4)c(C(F)(F)F)c3)nc2C)n1 [Compound 71, 1-(5-(5-Cyano-2-(methylamino)pyrimidin-4-yl)-4-methylthiazol-2-yl)-3-(4-((4-methylpiperazin-1-yl)methyl)-3-(trifluoromethyl)phenyl)urea]	50		200 ± 20
CCNc1nccc(-c2sc(NC(=O)Nc3ccc(CN4CCC(C)CC4)c(C(F)(F)F)c3)nc2C)n1 [Compound 57, 1-(5-(2-(Ethylamino)pyrimidin-4-yl)-4-methylthiazol-2-yl)-3-(4-((4-methylpiperidin-1-yl)methyl)-3-(trifluoromethyl)phenyl)urea]	49		6160 ± 140
CNc1nccc(-c2sc(NC(=O)Nc3cccc(OC)c3)nc2C)n1 [Compound 16, 1-(3-Methoxyphenyl)-3-(4-methyl-5-(2-(methylamino)pyrimidin-4-yl)thiazol-2-yl)urea]	9		2270 ± 680
CCNc1nccc(-c2sc(NC(=O)Nc3ccc(CN4CCOCC4)c(C(F)(F)F)c3)nc2C)n1 [Compound 56, 1-(5-(2-(Ethylamino)pyrimidin-4-yl)-4-methylthiazol-2-yl)-3-(4-(morpholinomethyl)-3-(trifluoromethyl)phenyl)urea]	21		529 ± 120

Source: patent US11325900B2, “5-(pyrimidin-4-yl)thiazol-2-yl urea derivatives as therapeutic agents” (AUCENTRA HOLDINGS PTY LTD, priority 2018, dated 2022)
